{"source": "patent US20060159689A1", "about": "“Combinations of tumor-associated antigens in diagnostics for various types of cancers” (priority 2004, published 2006)", "origin": "cited, not measured here", "tested_on": "VEGF-A", "sequence (P15692 207-311 limits assumed)": "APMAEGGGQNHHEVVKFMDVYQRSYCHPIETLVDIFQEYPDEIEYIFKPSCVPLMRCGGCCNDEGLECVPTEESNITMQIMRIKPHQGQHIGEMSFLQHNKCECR", "conditions": "colorectal, lung, breast, ovarian carcinoma and other cancers", "data": [{"substance": "bevacizumab", "values": [{"measurement": "effect on tumor progression and metastatic disease", "result": "control of tumor progression and metastatic disease"}]}]}
